From patent US12415939B2, “Nano-adhesive and surface primer compound and use thereof” (The Regents of the University of California, priority 2015, dated 2025)

Assays:
[1] = OFET characterization (saturation hole mobility); settings: Au source and drain electrodes
Source text: The OFETs were fabricated onto nano-grooved SiO2 substrates prepared by rubbing n^++Si (500 μm)/SiO2 (300 nm) substrate (International Wafer Services Co.) with a diamond lapping disc with particle sizes of 100 nm (Allied High Tech Products Inc.) as described in detail in the previous reports. The Ni (5 nm)/Au (50 nm) source and drain electrodes were patterned on the SiO2 dielectrics through a conventional photolithography process. For OFETs with Ni source and drain electrodes, an additional Ni (10 nm) layer was deposited on top of the pre-deposited Au electrodes. All metal electrodes were deposited by electron beam evaporation at 7×10^−7 Torr. Then, the substrates were sonicated in acetone and isopropanol for cleaning, and were kept in an oven at >100° C. for overnight. After ultraviolet/ozone treatment of pre-cleaned nano-grooved SiO2 substrates for 10 min, the substrates were passivated with the Z-Cat-Ben or Z-Cat-Ben-F SAM by dropping SAM water solution (5 mM) onto the substrates for ˜1 min. The substrates were subsequently rinsed with deionized water for ˜1 min, and were kept in a low vacuum for 10 min to remove residual water. The PCDTPT (1-Material Inc.) was then cast from a chlorobenzene solution (0.25 mg mL^−1) through the sandwich casting in a nitrogen-filled glove box. The devices were then cured at 200° C. for 1 min prior to measurements, and were tested using a probe station (Signatone Co.) in a nitrogen-filled glove box. Data were collected by a Keithley 4200 system.
The field-effect mobilities in the saturation regime were extracted using the following equation, IDS=(W/2L)Cμ(VGS−VT)^2 (7) where, W is the channel width, L is the channel length, C is the gate dielectric capacitance per unit area, μ is the carrier mobility in the saturation regime, IDS is the drain-source current, and VGS is the gate-source voltage. Channel width/length is 1000/200 μm for the devices used in this study. Transistor Characteristics of OFETs with Z-Cat-Ben and Z-Cat-Ben-F: Contact Angle Measurements: […]

[2] = Critical aggregation concentration by Wilhelmy plate tensiometry; assay type: physicochemical; settings: DI water
Experimental: (§1) Aqueous colloidal dispersions of each homolog were prepared in deoxygenated deionized (DI) water. The critical aggregation concentration (CAC) was determined from the solution surface tension of varying homolog concentrations in deionized (DI) water (e.g., see the red line of Z-Cat-C10 in FIG. 2B) by Wilhelmy plate tensiometry and has been described elsewhere. Use of the CAC instead of CMC here is a hedge to accommodate the uncertainty about whether micelles or other soluble aggregates were forming.
as §1, with “the” for “the red”

critical aggregation concentration (CAC), rank [2]	SMILES	saturation hole mobility μ [1] [cm^2 V^−1 s^−1]
–	C[N+](C)(CCCc1ccccc1)CCOP(=O)([O-])OCCCc1ccc(O)c(O)c1 [Z-Cat-Ben]	22±4
lowest CAC among the homologs	CN(C)CCOP(=O)(O)OCCCc1ccc(O)c(O)c1 [Z-Cat-C10]	–
